According to patent US4818748A, “Renin inhibitors and aminoacid and aminoaldehyde derivatives” (Bayer Aktiengesellschaft, priority 1986, dated 1989):

Assays:
[1] = test system: sodium-deficient spontaneously hypertensive rats; assay: Mean arterial pressure in anaesthetized sodium-deficient spontaneously hypertensive rats; assay type: in vivo, rat; conditions: intragastral administration; sodium-deficient SHR (furosemide in drinking water 14 days), anaesthetized with Inactin
[2] = test system: spontaneously hypertensive rats; assay: In vivo test: systolic blood pressure of conscious spontaneously hypertensive rats, indirect tail-cuff measurement; design: species or system rat; conditions: conscious SHR; for systolic blood pressure: oral dose of 100 mg/kg
Text: From the current state of the art, it was not to be expected that the compounds according to the invention have a hypotensive action when administered orally. […] [See Table 1].
The blood pressure of the conscious animals is thereby measured by the customary indirect measurement method on the tail, using an inflatable occlusion cuff and an infra-tone pulse recorder [compare H. Breuninger: Methoden zur unblutigen Messung des Blutdrucks an Kleintieren (Methods of bloodless measurement of the blood pressure on small animals), Arzneimittleforschung 6, 222-225 (1956)]. The substance is administered as a suspension in 1% strength Tylose by means of a stomach tube. The systolic blood pressure is measured before and 1, 2, 4 and 6 hours after administration.

[3] = molecular target: T1, endogenous resin from human plasma (Homo sapiens, UniProt P00797); assay: In vitro test: inhibition of plasma renin activity (angiotensin I formation, radioimmunoassay); assay type: biochemical
T1 construct: endogenous resin from human plasma; from tissue; host or cells: pooled human plasma (EDTA)
T1 sequence (P00797 67-406): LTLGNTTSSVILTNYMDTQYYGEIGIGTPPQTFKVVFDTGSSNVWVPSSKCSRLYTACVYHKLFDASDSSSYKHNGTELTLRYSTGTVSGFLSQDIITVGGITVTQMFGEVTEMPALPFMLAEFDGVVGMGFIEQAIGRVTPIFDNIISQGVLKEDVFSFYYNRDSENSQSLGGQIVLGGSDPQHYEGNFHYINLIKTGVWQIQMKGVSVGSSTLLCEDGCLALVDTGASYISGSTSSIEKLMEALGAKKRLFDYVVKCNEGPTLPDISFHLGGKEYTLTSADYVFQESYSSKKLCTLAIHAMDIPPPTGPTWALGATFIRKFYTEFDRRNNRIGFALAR
Description: The inhibitory strength of the peptides according to the invention against endogenous resin from human plasma is determined in vitro. Pooled human plasma is obtained, with the addition of ethylenediaminetetraacetic acid (EDTA) as an anticoagulant and is stored at -20° C. The plasma renin activity (PRA) is determined as the rate of formation of angiotensin I from endogenous angiotensinogen and renin after incubation at 37° C. The reaction solution contains 150 μl of plasma, 3 μl of 6.6% strength 8-hydroxyquinoline sulphate solution, 3 μl of 10% strength dimercaprol solution and 144 μl of sodium phosphate buffer (0.2M; 0.1% of EDTA; pH 5.6) with or without the substances according to the invention in various concentrations. The angiotensin I formed per unit time is determined by radioimmunoassay (Sorin Biomedica, Italy). The percentage inhibition of the plasma renin activity is calculated by comparison of the amount of angiotensin I formed here with or without the substances according to the invention.

In the case of `CC[C@H](C)[C@H](NC(=O)C[C@H](O)[C@H](Cc1ccc([N+](=O)[O-])cc1)NC(=O)[C@H](Cc1c[nH]cn1)NC(=O)[C@H](Cc1ccccc1)NC(=O)OC(C)(C)C)C(=O)OC` [Example 12, N-tert.-Butoxycarbonyl-phenylalanyl-L-histidyl-4S-amino-3S-hydroxy-5-(4-nitrophenyl)pentanoyl-L-isoleucine methyl ester], the “mean arterial pressure (in words)” value [1] is reported as “reduces the mean arterial pressure”, the systolic blood pressure ([2]; 0 hours (before administration)) is reported as 165.0 mm Hg and the systolic blood pressure ([2]; 1 hour after administration) is reported as 163.1 mm Hg. The systolic blood pressure ([2]; 2 hours after administration) was 161.8 mm Hg, the systolic blood pressure ([2]; 4 hours after administration) was 151.8 mm Hg and the systolic blood pressure ([2]; 6 hours after administration) was 148.5 mm Hg. The “antihypertensive action (in words)” value ([2]; oral administration of 100 mg/kg) was “antihypertensive action is observed” and the “inhibition of renin activity in vitro (in words)” value [3] was “inhibit the renin activity in vitro”.
